Assay [1] concerns the target Sigma non-opioid intracellular receptor 1 (Cavia porcellus, UniProt Q60492). In words: Displacement of [3H](+)-pentazocine from sigma 1 receptor in guinea pig brain cortex membranes after 120 mins by scintillation counting analysis. The class given is cell membranes. Background: In a radioligand displacement assay an active substance lowers the binding of a labelled ligand.

In assay [2] the target is T1, Sigma intracellular receptor 2 (Rattus norvegicus, UniProt Q5U3Y7).
T1 sequence (Q5U3Y7 whole entry): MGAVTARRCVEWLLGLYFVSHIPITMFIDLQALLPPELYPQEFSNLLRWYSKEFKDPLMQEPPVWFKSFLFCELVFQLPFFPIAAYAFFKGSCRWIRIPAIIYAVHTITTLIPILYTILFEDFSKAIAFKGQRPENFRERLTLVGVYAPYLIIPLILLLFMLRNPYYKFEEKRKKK
In words: Displacement of [3H]-di-o-tolylguanidine from sigma2 receptor in rat liver membranes incubated for 120 mins in the presence of sigma1 receptor ligand (+)-pentazocine by scintillation counting method. The class given is cell membranes.

The nature of assay [3]: Selectivity ratio of Ki for displacement of [3H]DTG from sigma2 receptor in rat liver membranes to Ki for displacement of (+)-[3H]pentazocine from sigma 1 receptor in guinea pig brain cortex membranes. The class given is cell membranes.
Assay [4] concerns the target Delta-type opioid receptor (Rattus norvegicus, UniProt P33533). In words: Displacement of [3H]DPDPE from delta opioid receptor in rat membranes after 120 mins by scintillation counting analysis. Format: cell membranes.
Assay [5] has as its target Sigma intracellular receptor 2 (Homo sapiens, UniProt Q5BJF2). As to the kind of experiment: Displacement of [3H]-di-o-tolylguanidine from sigma2 receptor in human RT4 cell membranes incubated for 120 mins in the presence of sigma1 receptor ligand (+)-pentazocine by scintillation counting method.
In assay [6] the target is Kappa-type opioid receptor (Cavia porcellus) (UniProt P41144). As to the kind of experiment: Displacement of [3H]U69,593 from kappa opioid receptor in guinea pig brain membrane at 1 uM after 120 mins by scintillation counting analysis relative to control. The class given is cell membranes.
For the next assay, the target named is Mu-type opioid receptor (Cavia porcellus, UniProt P97266). In words: Displacement of [3H]DAMGO from mu opioid receptor in guinea pig brain membranes after 120 mins by scintillation counting analysis. Format: cell membranes.
Assay [7] concerns the target Delta-type opioid receptor (Rattus norvegicus) (UniProt P33533). In words: Displacement of [3H]DPDPE from delta opioid receptor in rat membrane at 1 uM after 120 mins by scintillation counting analysis relative to control. Format: cell membranes.
Assay [8] concerns the target Mu-type opioid receptor (Cavia porcellus) (UniProt P97266). In words: Displacement of [3H]DAMGO from mu opioid receptor in guinea pig brain membranes at 1 uM after 120 mins by scintillation counting analysis relative to control. Format: cell membranes.
Assay [9] has as its target Kappa-type opioid receptor (Cavia porcellus, UniProt P41144). In words: Displacement of [3H]U69,593 from kappa opioid receptor in guinea pig brain membrane after 120 mins by scintillation counting analysis. The class given is cell membranes.
A further assay is filed under the species Sus scrofa. As to the kind of experiment: Displacement of [3H]-(+)-MK-801 from PCP binding site of NMDA receptor in pig brain cortex membranes up to 1 uM after 120 mins by scintillation counting analysis. The class given is cell membranes.

Activity calls are given as the source filed them. No cut-off for these calls is given here.

Chain of Kappa-type opioid receptor (Cavia porcellus) (P41144 whole entry): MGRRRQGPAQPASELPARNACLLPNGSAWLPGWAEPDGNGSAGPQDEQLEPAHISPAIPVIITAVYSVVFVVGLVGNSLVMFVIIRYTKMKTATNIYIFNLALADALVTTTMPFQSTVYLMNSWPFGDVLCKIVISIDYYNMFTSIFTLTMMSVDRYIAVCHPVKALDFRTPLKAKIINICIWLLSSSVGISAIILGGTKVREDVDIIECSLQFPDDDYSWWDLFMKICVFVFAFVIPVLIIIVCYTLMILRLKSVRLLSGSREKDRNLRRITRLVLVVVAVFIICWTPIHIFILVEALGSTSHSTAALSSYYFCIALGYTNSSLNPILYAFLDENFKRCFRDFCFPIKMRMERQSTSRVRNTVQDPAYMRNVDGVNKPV
Chain of Kappa-type opioid receptor (P41144 whole entry): as above
Chain of Delta-type opioid receptor (Rattus norvegicus) (P33533 whole entry): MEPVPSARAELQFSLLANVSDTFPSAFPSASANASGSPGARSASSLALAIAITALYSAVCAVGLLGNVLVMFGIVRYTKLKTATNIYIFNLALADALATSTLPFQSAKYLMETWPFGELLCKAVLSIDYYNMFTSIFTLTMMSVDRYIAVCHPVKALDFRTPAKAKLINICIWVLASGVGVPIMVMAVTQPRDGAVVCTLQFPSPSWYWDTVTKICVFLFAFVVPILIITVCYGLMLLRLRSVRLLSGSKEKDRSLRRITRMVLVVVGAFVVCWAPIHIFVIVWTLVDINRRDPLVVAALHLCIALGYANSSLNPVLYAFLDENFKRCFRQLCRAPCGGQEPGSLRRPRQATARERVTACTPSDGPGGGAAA
Chain of Delta-type opioid receptor (P33533 whole entry): as above
Chain of Sigma intracellular receptor 2 (Homo sapiens, UniProt Q5BJF2) (Q5BJF2 whole entry): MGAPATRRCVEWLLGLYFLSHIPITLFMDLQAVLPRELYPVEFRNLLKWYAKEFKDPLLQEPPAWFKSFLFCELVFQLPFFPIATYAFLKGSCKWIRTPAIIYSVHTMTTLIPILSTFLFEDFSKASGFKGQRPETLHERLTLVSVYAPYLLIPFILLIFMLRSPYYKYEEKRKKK
Chain of Sigma non-opioid intracellular receptor 1 (Q60492 whole entry): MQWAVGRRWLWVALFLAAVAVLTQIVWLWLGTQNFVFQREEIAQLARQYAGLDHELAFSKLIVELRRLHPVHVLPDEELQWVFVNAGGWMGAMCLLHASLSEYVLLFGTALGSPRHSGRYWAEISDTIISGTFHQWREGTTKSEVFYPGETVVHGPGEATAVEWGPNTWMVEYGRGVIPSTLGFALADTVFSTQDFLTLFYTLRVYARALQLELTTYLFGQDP
Chain of Mu-type opioid receptor (P97266 whole entry): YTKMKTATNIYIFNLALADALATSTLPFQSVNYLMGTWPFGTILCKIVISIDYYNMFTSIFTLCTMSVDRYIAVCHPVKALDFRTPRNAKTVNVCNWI
Chain of Mu-type opioid receptor (Cavia porcellus) (P97266 whole entry): as above

Usually Ki stands for the equilibrium dissociation constant of an inhibitor or competing ligand from its target. As usually defined, the inhibition is how much of the control response was suppressed. `CN(CC1CCCCC1)[C@H]1CC[C@@]2(CC1)OCCc1ccccc12`: the Ki in [1] was 8 nM; in assay [2], 175 nM; in [4], 187 nM; in [5] it was 12 nM. Moreover, in assay [3], the Ratio Ki was 22. For the same molecule, the inhibition in [6] stood at 23%.

`CN(CC1CCCCC1)[C@H]1CC[C@]2(CC1)OC=Cc1ccccc12`: the Ki in assay [1] was 2.3 nM; in assay [2], 33 nM; at Mu-type opioid receptor, 391 nM; in assay [5] it was 4.6 nM. The Ratio Ki in [3] was in the range of 5 to 10. In assay [7], this molecule had an inhibition of 38%.

For `CN(CC1CCCCC1)[C@H]1CC[C@]2(CC1)OCCc1ccccc12`, the Ki in assay [1] is 3.1 nM; in assay [2] it was 30 nM; in assay [4] it was 565 nM; in assay [5], 5.5 nM. Besides, the Ratio Ki in assay [3] was 5 to 10. Further, the values for the inhibition in assay [8] and in [6] were 13% and 10%, respectively.

For the molecule `c1ccc2c(c1)CCO[C@]21CC[C@H](NCC2CCCCC2)CC1`, the Ki in [1] is 15 nM; in assay [2] it was 99 nM; on Mu-type opioid receptor, 114 nM; in [4], 178 nM; in assay [9] it was 236 nM; in assay [5] it was 8 nM. Besides, in assay [3], the Ratio Ki lay within 5 to 10.

With `C1=Cc2ccccc2[C@]2(CC[C@@H](NCC3CCCCC3)CC2)O1`, the Ki in assay [1] was found to be 12 nM; in assay [2], 53 nM; at Mu-type opioid receptor, 258 nM; in assay [4], 479 nM; in assay [9] it was 604 nM; in [5], 7 nM. Moreover, the Ratio Ki in assay [3] lay in the range of 5 to 10.

`CCOC1Cc2ccccc2[C@]2(CC[C@H](N(C)CC3CCCCC3)CC2)O1` (stereo not given in full): the Ki in [1] stood at 8.1 nM; in assay [2], 42 nM; on Mu-type opioid receptor it was 297 nM; in [4], 356 nM; in assay [5] it was 14 nM. For the same molecule, the Ratio Ki in assay [3] lay in the range of 5 to 10. This molecule yielded an inhibition in assay [6] of 18%.

Consider `COC1Cc2ccccc2[C@]2(CC[C@H](NCc3ccccc3)CC2)O1` (stereo not given in full), for which, in [5], the Ki came to 227 nM. Besides, the inhibition came out at 20% in assay [8], 41% in [7] and 27% in [6]. Further, in the assay listed under Sus scrofa, the outcome was inactive.

Take `CN(CC1CCCCC1)[C@H]1CC[C@@]2(CC1)OC=Cc1ccccc12`: the Ki was found to be 4.9 nM in assay [1], 81 nM in [2], 163 nM at Mu-type opioid receptor and 16 nM in assay [5]. Also, in assay [3], the Ratio Ki was 5 to 10. This molecule also registered an inhibition in assay [7] of 11%.

Consider `CCOC1Cc2ccccc2[C@]2(CC[C@@H](NCC3CCCCC3)CC2)O1` (stereo not given in full), for which the inhibition constant Ki in [1] worked out at 183 nM; in [2], 161 nM; on Mu-type opioid receptor it was 185 nM; in assay [4], 185 nM; in assay [9], 85 nM; in [5], 16 nM. Further, the Ratio Ki in [3] lay within 5 to 10.

As for `c1ccc2c(c1)CCO[C@]21CC[C@@H](NCC2CCCCC2)CC1`, the Ki turned out to be 18 nM in assay [1], 84 nM in [2], 841 nM on Mu-type opioid receptor and 33 nM in assay [5]. Further, in [3], the Ratio Ki is 5 to 10. Moreover, the inhibition in assay [7] came to 11%; in [6], 16%.

Regarding `C1=Cc2ccccc2[C@]2(CC[C@H](NCC3CCCCC3)CC2)O1`, the Ki in assay [1] came out at 5.7 nM; in assay [2], 67 nM; in assay [4] it was 209 nM; in assay [5], 6.7 nM. Moreover, the Ratio Ki in assay [3] lay in the range of 5 to 10. Besides, the inhibition in [8] came to 15%; in assay [6], 18%.

With `CCOC1Cc2ccccc2[C@]2(CC[C@@H](N(C)CC3CCCCC3)CC2)O1` (stereo not given in full), the inhibition constant (Ki) in assay [1] is 15 nM; in [2], 361 nM; at Mu-type opioid receptor, 879 nM; in assay [5] it was 93 nM. Further, the Ratio Ki in [3] was 24. In addition, the figures for the inhibition in [7] and in assay [6] were 13% and 24%, respectively.

As for `CCOC1Cc2ccccc2[C@]2(CC[C@H](NCC3CCCCC3)CC2)O1` (stereo not given in full), the Ki in assay [1] worked out at 36 nM; in assay [2], 308 nM; on Mu-type opioid receptor it was 495 nM; in assay [4], 432 nM; in [9] it was 745 nM; in [5] it was 46 nM. Besides, the Ratio Ki in assay [3] fell in the range of 5 to 10.

`COC1O[C@]2(CC[C@@H](NCC3CCCCC3)CC2)c2ccccc21` (stereo not given in full): the Ki came to 20 nM in [1]; 52 nM in [2]; 501 nM on Mu-type opioid receptor; 143 nM in [4]; 11 nM in assay [5]. For the same molecule, in assay [3], the Ratio Ki is 5 to 10. In [6], this molecule displayed an inhibition of 23%.

`COC1O[C@]2(CC[C@@H](NCc3ccccc3)CC2)c2ccccc21` (stereo not given in full): the Ki in [1] amounted to 50 nM; in [2], 751 nM; at Mu-type opioid receptor, 768 nM; in assay [4], 655 nM; in assay [9] it was 1140 nM. Besides, the Ratio Ki in assay [3] lay in the range of 5 to 10.

As for `COC1O[C@]2(CC[C@@H](N(C)CC3CCCCC3)CC2)c2ccccc21` (stereo not given in full), the Ki in assay [1] is 8.2 nM; in assay [2], 70 nM; in [4] it was 559 nM; in assay [5], 7.6 nM. For the same molecule, the Ratio Ki in assay [3] fell in the range of 5 to 10. Further, the inhibition in assay [8] stood at 16%; in [6], 0%.

As for `COC1Cc2ccccc2[C@]2(CC[C@@H](NCC3CCCCC3)CC2)O1` (stereo not given in full), the Ki in assay [1] turned out to be 19 nM; in assay [2] it was 128 nM; at Mu-type opioid receptor it was 354 nM; in [4], 228 nM; in [9] it was 96 nM. In [3], the Ratio Ki was in the range of 5 to 10. Also, in the assay listed under Sus scrofa, the outcome was inactive.

Take `COC1O[C@]2(CC[C@H](N(C)CC3CCCCC3)CC2)c2ccccc21` (stereo not given in full): the Ki was found to be 8 nM in [1]; 164 nM in assay [2]; 231 nM at Mu-type opioid receptor; 254 nM in assay [4]; 639 nM in [9]; 9.4 nM in assay [5]. In addition, the Ratio Ki in [3] turned out to be 21.

Take `COC1O[C@]2(CC[C@H](NCC3CCCCC3)CC2)c2ccccc21` (stereo not given in full): the Ki in assay [1] came to 19 nM; in [2], 133 nM; at Mu-type opioid receptor, 273 nM; in [4], 114 nM; in [9], 506 nM; in assay [5] it was 39 nM. Also, in assay [3], the Ratio Ki fell in the range of 5 to 10.

Consider `COC1Cc2ccccc2[C@]2(CC[C@H](NCC3CCCCC3)CC2)O1` (stereo not given in full), for which the inhibition constant (Ki) worked out at 5.8 nM in [1], 101 nM in [2] and 462 nM at Mu-type opioid receptor. Moreover, in assay [3], the Ratio Ki is 5 to 10. Moreover, the inhibition in [7] worked out at 33%; in [6], 28%. For the same molecule, the result in the assay listed under Sus scrofa was inactive.

Turning to `c1ccc(CN[C@H]2CC[C@]3(CC2)OCCc2ccccc23)cc1`, the Ki in [1] worked out at 97 nM; in [2], 503 nM. In assay [3], the Ratio Ki was in the range of 5 to 10. Besides, the inhibition came out at 0% in [8], 20% in assay [7] and 0% in assay [6].

Values taken from ChEMBL document CHEMBL4385605, “Synthesis and Structure-Affinity Relationships of Spirocyclic Benzopyrans with Exocyclic Amino Moiety” (J Med Chem, 2019).
